# According to patent publication US6833146B2, “Powered beverage mix with rapidly dissolving calcium” (Unilab Pharmatech, Ltd., priority 2002, dated 2004):
# Experiments:
# [1] = Simulated Hand Stirring Test (calcium sedimentation after stirring a unit dose in water); type: physicochemical; conditions: for calcium base reacts fast enough with the acid for minimal calcium sedimentation: with appropriate amount of sugar, stirred for less than about 60 seconds by hand; for Sweetener/calcium ratio to pass 60-second Simulated Hand Stirring Test: calcium hydroxide providing 300 mg calcium per unit dose, citric acid 0.96 gram per unit dose, 200 ml water at 25° C., 200 rpm; for Acid required/Dose: citric acid to pass 60-second test
# Protocol: A magnetic stir bar (9.5×50.8 mm, catalogue no. 58948-980, VWR Spinbar®, USA) is placed in a 250-ml Pyrex® beaker (catalogue no. 1000-250, Corning, USA) to which 200 ml of water at 25° C. is added. The beaker is placed on top of a digital magnetic stirrer (Cole Parmer, USA) and the speed set at 200 rpm. A unit dose of a powdered mix is then added to the water and stirred for a given period of time, after which the beaker is removed and calcium sedimentation evaluated on a 1-10 scale, with 1 denoting no visible calcium sedimentation. A rating of 2 denoting very minimal calcium sedimentation, which is visually acceptable, is set as the minimum dissolution criterion.
# Hereafter, this test will be referred to as the “Simulated Hand Stirring Test”. When the stirring time is 60 seconds, the test is referred to as the “60-second Simulated Hand Stirring Test”.
# [2] = cited from earlier work
# [3] = Solubility in water; type: physicochemical
smiles,measurement,setting,value
[Ca+2].[OH-].[OH-] [Calcium hydroxide],calcium base reacts fast enough with the acid for minimal calcium sedimentation,[1],will react fast enough
"[O]=[Ca] [Calcium oxide, reference compound]",calcium base reacts fast enough with the acid for minimal calcium sedimentation,[1],may not react fast enough
O=C(CO)[C@@H](O)[C@H](O)[C@H](O)CO [Fructose],Sweetener/calcium ratio to pass 60-second Simulated Hand Stirring Test,[1],45
same,Acid required/Dose,"[1]; fructose On Mesh 20 (> 841 micron), 22 g fructose/dose, 500 mg calcium/dose",2.0
same,Acid required/Dose,"[1]; fructose On Mesh 20, 6 g fructose/dose, 150 mg calcium/dose",0.5
same,Acid required/Dose,"[1]; fructose On Mesh 20, 16 g fructose/dose, 300 mg calcium/dose",1.0
same,Acid required/Dose,"[1]; fructose Through mesh 40 (< 420 micron), 22 g fructose/dose, 500 mg calcium/dose",2.0
same,Acid required/Dose,"[1]; fructose Through mesh 40, 6 g fructose/dose, 150 mg calcium/dose",0.5
same,Acid required/Dose,"[1]; fructose Through mesh 40, 16 g fructose/dose, 300 mg calcium/dose",1.0
"O=C(O)/C=C/C(=O)O [Fumaric acid, reference compound]",solubility in water,[2],0.63 gram per 100 ml of water
same,calcium sedimentation with fumaric acid as the acid,"[1]; 555 mg calcium hydroxide (300 mg calcium), 26 grams sucrose, fumaric acid at three times the stoichiometric amount",significant calcium sedimentation
same,times more soluble than calcium hydroxide,[3],about four
"OC[C@@H](O)[C@@H](O)[C@H](O)[C@@H](O)CO [Sorbitol, reference compound]",Sweetener/calcium ratio to pass 60-second Simulated Hand Stirring Test,[1],95
OC[C@H]1O[C@@](CO)(O[C@H]2O[C@H](CO)[C@@H](O)[C@H](O)[C@H]2O)[C@@H](O)[C@@H]1O [Sucrose],Sweetener/calcium ratio to pass 60-second Simulated Hand Stirring Test,[1],60
O=C(O)CC(O)C(=O)O (stereo not drawn) [malic acid],times more soluble than calcium hydroxide,[3],about 300 times
